From BindingDB's records for doi:10.1021/acs.jnatprod.8b00507 (Chinese Academy of Sciences, 2019)

Assay: Inhibition of P-gp in doxorubicin-resistant human MCF7/ADR cells assessed as reversal of doxorubicin resistance by measuring doxorubicin IC50 incubated for 48 hrs by MTT assay (Rvb = doxorubicin alone = 64.8 +/- 2.1 uM)

Structure (SMILES)	IC50
C=C1[C@H](OC(C)=O)[C@H]2[C@@H](OC(=O)c3ccccc3)[C@@H](C)C[C@]2(OC(C)=O)C(=O)[C@@H](C)/C=C/C(C)(C)C(=O)[C@H](OC(C)=O)[C@H]1OC(C)=O	9.6 µM
C=C1[C@H](OC(=O)c2ccccc2)[C@H]2[C@@H](OC(C)=O)[C@@H](C)C[C@]2(OC(C)=O)C(=O)[C@@H](C)/C=C/C(C)(C)C(=O)[C@H](OC(=O)c2ccccc2)[C@H]1OC(C)=O	7.3 µM
C=C1[C@H](OC(C)=O)[C@H]2[C@@H](OC(=O)c3ccccc3)[C@@H](C)C[C@]2(OC(C)=O)C(=O)[C@@H](C)/C=C/C(C)(C)C(=O)[C@H](O)[C@H]1OC(C)=O	13.3 µM
C=C1[C@H](OC(C)=O)[C@H]2[C@@H](OC(=O)c3ccccc3)[C@@H](C)C[C@]2(O)C(=O)[C@@H](C)/C=C/C(C)(C)C(=O)[C@H](O)[C@H]1OC(C)=O	25.3 µM
C=C1[C@H](OC(C)=O)CC(=O)C(C)(C)/C=C/[C@H](C)C(=O)[C@@]2(OC(C)=O)C[C@H](C)[C@H](OC(=O)c3ccccc3)[C@@H]2[C@H]1OC(C)=O	13.1 µM
C=C1[C@H](OC(C)=O)[C@H]2[C@@H](OC(=O)c3ccccc3)[C@](C)(O)C[C@]2(O)C(=O)[C@@H](C)/C=C/C(C)(C)C(=O)[C@H](OC(C)=O)[C@H]1OC(=O)c1ccccc1	7.8 µM
C=C1[C@H](OC(=O)c2ccccc2)[C@@H](OC(C)=O)[C@@H](OC(C)=O)C(C)(C)/C=C/[C@H](C)C(=O)[C@@]2(OC(C)=O)C[C@H](C)[C@H](OC(=O)c3ccccc3)[C@@H]2[C@H]1OC(C)=O	9.9 µM
C=C1[C@H](OC(C)=O)[C@H]2[C@@H](OC(=O)c3ccccc3)[C@@H](C)C[C@]2(OC(C)=O)C(=O)[C@@H](C)/C=C/C(C)(C)C(=O)[C@H](OC(C)=O)[C@H]1OC(=O)c1ccccc1	8 µM

More lines, in order of falling IC50, values ahead:

IC50	Structure (SMILES)
28 µM	C=C1[C@H](O)[C@H]2[C@@H](OC(=O)c3ccccc3)[C@](C)(O)C[C@]2(O)[C@H](OC(C)=O)[C@@H](C)/C=C/C(C)(C)C(=O)[C@H](OC(C)=O)[C@H]1OC(=O)c1ccccc1
21.6 µM	C=C1[C@H](OC(=O)c2ccccc2)[C@H]2[C@@H](OC(C)=O)[C@@H](C)C[C@]2(OC(C)=O)C(=O)[C@@H](C)/C=C/C(C)(C)C(=O)[C@H](O)[C@H]1OC(C)=O
20.6 µM	C=C1[C@H](O)[C@H]2[C@@H](OC(=O)c3ccccc3)[C@](C)(OC(C)=O)C[C@]2(O)[C@H](OC(C)=O)[C@@H](C)/C=C/C(C)(C)C(=O)[C@H](OC(C)=O)[C@H]1OC(C)=O
14.2 µM	C=C1[C@H](OC(C)=O)CC(=O)C(C)(C)/C=C/[C@H](C)C(=O)[C@@]2(OC(C)=O)C[C@H](C)[C@H](OC(C)=O)[C@@H]2[C@H]1OC(=O)c1ccccc1
12.9 µM	C=C1[C@H](OC(C)=O)[C@H]2[C@@H](OC(=O)c3ccccc3)[C@](C)(OC(C)=O)C[C@]2(O)C(=O)[C@@H](C)/C=C/C(C)(C)C(=O)[C@H](OC(C)=O)[C@H]1OC(=O)C(C)C
10.3 µM	C=C1[C@H](OC(C)=O)[C@H]2[C@@H](OC(=O)CC(C)=O)[C@@H](C)C[C@]2(O)C(=O)[C@@H](C)/C=C/C(C)(C)C(=O)[C@H](OC(C)=O)[C@H]1OC(=O)c1ccccc1
9.5 µM	C=C1[C@H](OC(C)=O)[C@H]2[C@@H](OC(=O)c3ccccc3)[C@@H](C)C[C@]2(OC(C)=O)C(=O)[C@@H](C)/C=C/C(C)(C)C(=O)[C@H](O)[C@H]1OC(=O)c1ccccc1
5.3 µM	C=C1[C@H](OC(C)=O)[C@H]2[C@@H](OC(=O)c3ccccc3)[C@](C)(OC(C)=O)C[C@]2(O)C(=O)[C@@H](C)/C=C/C(C)(C)C(=O)[C@H](OC(=O)C(C)C)[C@H]1OC(C)=O
5 µM	C=C1[C@H](OC(C)=O)[C@H]2[C@@H](OC(=O)c3ccccc3)[C@](C)(O)C[C@]2(O)C(=O)[C@@H](C)/C=C/C(C)(C)C(=O)[C@H](OC(=O)C(C)C)[C@H]1OC(C)=O
